Test results taken from patent US9643967B2, “Pyrrolo[3,2-c]pyridine derivatives as TLR inhibitors” (TAKEDA PHARMACEUTICAL COMPANY LIMITED, priority 2013, dated 2017).
Like-named read-outs stand apart in the source and are kept apart here.

Target: T1, mTLR7 (Mus musculus, UniProt P58681)
T1 construct: Splenocytes isolated from male C57/BL6 mice; from tissue; host or cells: splenocytes from the spleen of male C57BL/6 mice
T1 sequence (P58681 27-1050): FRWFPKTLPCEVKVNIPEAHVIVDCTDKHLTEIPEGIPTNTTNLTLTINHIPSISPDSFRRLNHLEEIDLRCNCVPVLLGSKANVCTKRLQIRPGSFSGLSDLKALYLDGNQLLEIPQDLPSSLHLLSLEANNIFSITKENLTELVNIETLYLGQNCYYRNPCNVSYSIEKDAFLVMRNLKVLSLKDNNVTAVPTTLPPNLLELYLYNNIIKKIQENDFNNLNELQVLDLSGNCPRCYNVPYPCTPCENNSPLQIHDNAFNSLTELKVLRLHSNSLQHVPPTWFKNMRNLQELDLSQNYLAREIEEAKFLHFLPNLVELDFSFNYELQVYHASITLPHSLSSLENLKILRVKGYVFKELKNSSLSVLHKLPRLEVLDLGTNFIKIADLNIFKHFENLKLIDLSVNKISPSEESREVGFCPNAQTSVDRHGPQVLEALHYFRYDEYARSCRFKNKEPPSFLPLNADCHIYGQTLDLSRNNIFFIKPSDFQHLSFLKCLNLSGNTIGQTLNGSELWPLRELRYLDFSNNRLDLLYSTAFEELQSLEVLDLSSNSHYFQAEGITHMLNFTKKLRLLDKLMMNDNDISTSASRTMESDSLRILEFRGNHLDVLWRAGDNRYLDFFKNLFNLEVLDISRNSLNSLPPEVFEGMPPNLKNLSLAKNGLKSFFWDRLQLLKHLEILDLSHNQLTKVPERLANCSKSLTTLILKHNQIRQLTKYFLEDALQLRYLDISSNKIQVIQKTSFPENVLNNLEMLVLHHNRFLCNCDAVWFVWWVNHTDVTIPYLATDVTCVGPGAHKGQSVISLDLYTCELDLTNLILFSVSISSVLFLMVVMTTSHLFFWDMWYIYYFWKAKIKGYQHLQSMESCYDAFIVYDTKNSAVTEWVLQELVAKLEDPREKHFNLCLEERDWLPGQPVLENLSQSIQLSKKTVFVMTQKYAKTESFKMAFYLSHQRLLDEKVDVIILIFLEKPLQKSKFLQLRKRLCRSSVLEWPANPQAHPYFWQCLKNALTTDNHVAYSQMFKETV
Assay: mTLR7 antagonism (IL-6 and TNF-α release assay) in mouse splenocytes, R0006/DOTAP stimulated
Type: cell-based
Settings: 1 μM, mouse splenocytes
From the text: mTLR9 and mTLR7 Antagonism (Cytokine Release Assay) in Mouse Splenocytes
TLR7 ligand R0006 (IDT, 5′-rU*rU*rG*rU*rU*rG*rU*rU*rG*rU*rU*rG*rU*rU*rG*rU*rU*rG*rU*rU-3′ (SEQ ID NO:1)), Liposomal transfection reagent—DOTAP (Roche, Cat. No. 11202375001), TLR9 ligand CpG ODN2006 (Sequence: T*C*G*T*C*G*T*T*T*T*G*T*C*G*T*T*T*T*G*T*C*G*T*T; *=phosphorothioate (SEQ ID NO:2)) DMSO (Sigma, D2650), RPMI Powder (Sigma, R6504), Fetal Bovine Serum (Gibco, 10270), Dulbecco's Phosphate Buffered Saline (Sigma, D1408), 96 well plate (Flat bottom, Costar 3599), ELISA kit for IL-6 (EBioscience, 88-7064-77 and TNFa (EBioscience, 88-7346-88), MACS Buffer (AutoMACS Rinsing Solution (Miltenyl Biotec, 130-091-222)+0.05% BSA), RBC lysis buffer (0.85% NH4Cl), 40 μm cell strainer (BD Falcon, 352340) Method: A. Isolation of Mouse Splenocytes
Mouse spleen was isolated from C57BL6 mouse and stored in 1× chilled PBS buffer until further processed. Spleen was transferred to a sterile petriplate and chopped in to 5-6 pieces in presence of MACS buffer (100 μl) with the help of fresh surgical blade and crushed with flat plunger of a sterile syringe. A uniform suspension was prepared by passing cells through a 40 μm cell strainer. Cells were centrifuged at 450×g for 5 minutes at 4° C., supernatant was discarded and pellet dislodged gently, resuspended in 2 ml of pre-warmed (37° C.) RBC lysis buffer at room temperature with continuous gentle mixing with 1 ml pipette. Lysis buffer was neutralized with 12 ml of chilled MACS buffer and cells were passed through 40 μm cell strainer. Cell suspension was collected in 15 ml MACS buffer and centrifuged at 450×g for 5 minutes at 4° C. Pellet was resuspended in 15 ml MACS buffer and centrifuged at 400×g for 5 minutes. Cells were resuspended in 10 ml of RPMI complete medium and viability was estimated by Trypan blue method.
mTLR7 Antagonism (IL-6 and TNF-α Release Assay):
1 mg/ml stock of R0006 was prepared in sterile, endotoxin-free water. R0006 stock was diluted 10 fold with DOTAP and incubated for 30 minutes to form liposome complex (100 μg/ml of R0006). This complex was further diluted 10 fold with incomplete RPMI media (10 μg/ml of R0006) to achieve the final agonist concentration of 1 μg/ml. DOTAP alone was diluted 10 fold in incomplete RPMI media. NCEs were added in a concentration range of 30 μM to 1 nM in respective wells of assay plate, assay medium containing 0.3% DMSO were added to control wells. 0.2 million splenocytes were added to all the wells and incubated at 37° C. in 5% CO2 incubator for 30 minutes. 1 μg/ml of respective agonist was added to all the wells except those were assigned as negative controls and mixed thoroughly. DOTAP was added to negative control wells and incubated overnight at 37° C./5% CO2. The plate was centrifuged at 450×g for 5 minutes at room temperature and the supernatant was collected. ELISA was performed as per manufacturer's protocol. S/B Ratio, % Activity and % Inhibition was calculated using MS Excel. IC50 and inhibition curve was generated using Graph Pad Prism.

[1] = IL-6 release, read-out: mTLR7 inhibitory activity (% at 1 μM), IL-6
[2] = TNF-α release, read-out: mTLR7 inhibitory activity (% at 1 μM), TNF-α

Row | Structure (SMILES) | inhibition at 1 µM [1] [%] | inhibition at 1 µM [2] [%]
1 | CC(C)N1CCN(c2ccc(-c3nccc4[nH]c(CN5CCOCC5)cc34)cc2)CC1 [Example A1, 4-[[4-[4-(4-isopropylpiperazin-1-yl)phenyl]-1H-pyrrolo[3,2-c]pyridin-2-yl]methyl]morpholine] | 97 | 100
2 | CN1CCN(c2ccc(-c3nccc4[nH]c(CN5CCOCC5)cc34)cc2)CC1 [Example A2, 4-[[4-[4-(4-methylpiperazin-1-yl)phenyl]-1H-pyrrolo[3,2-c]pyridin-2-yl]methyl] morpholine] | 90 | 100
3 | CCN1CCN(c2ccc(-c3nccc4[nH]c(CN5CCOCC5)cc34)cc2)CC1 [Example A3, 4-[[4-[4-(4-ethylpiperazin-1-yl)phenyl]-1H-pyrrolo[3,2-c]pyridin-2-yl]methyl] morpholine] | 100 | 100
4 | Cc1cc2[nH]c(CN3CCOCC3)cc2c(-c2ccc(N3CCN(C(C)C)CC3)cc2)n1 [Example A4, 4-[[4-[4-[4-isopropylpiperazin-1-yl)phenyl]-6-methyl-1H-pyrrolo[3,2-c]pyridin-2-yl]methyl] morpholine] | 100 | 100
5 | CCN1CCN(c2ccc(-c3nc(C)cc4[nH]c(CN5CCOCC5)cc34)cc2)CC1 [Example A5, 4-[[4-[4-(4-ethylpiperazin-1-yl)phenyl]-6-methyl-1H-pyrrolo[3,2-c]pyridin-2-yl]methyl] morpholine] | 100 | 100
6 | CC(C)N1CCN(c2ccc(-c3nccc4c3cc(CN3CCOCC3)n4C)cc2)CC1 [Example A8, 4-[[4-[4-(4-isopropylpiperazin-1-yl)phenyl]-1-methyl-pyrrolo[3,2-c]pyridin-2-yl]methyl] morpholine] | 100 | 100
7 | CN1CCN(c2ccc(-c3nccc4c3cc(CN3CCOCC3)n4C)cc2)CC1 [Example A9, 4-[[1-methyl-4-[4-(4-methylpiperazin-1-yl)phenyl]pyrrolo[3,2-c]pyridin-2-yl]methyl] morpholine] |  | 100
8 | CC(C)N1CCN(c2ccc(-c3nccc4[nH]c(CN5CCC(O)CC5)cc34)cc2)CC1 [Example A12, 1-[[4-[4-(4-isopropylpiperazin-1-yl)phenyl]-1H-pyrrolo[3,2-c]pyridin-2-yl]methyl] piperidin-4-ol] | 80 | 45
9 | CC(C)N1CCN(c2ccc(-c3nccc4[nH]c(CN5CCC6(CC5)CC(O)C6)cc34)cc2)CC1 [Example A13, 7-[[4-[4-(4-isopropylpiperazin-1-yl)phenyl]-1H-pyrrolo[3,2-c]pyridin-2-yl]methyl]-7-azaspiro[3.5] nonan-2-ol] | 98 | 91
10 | CC(C)N1CCN(c2ccc(-c3nccc4[nH]c(CN5CC(F)C5)cc34)cc2)CC1 [Example A16, 2-[(3-fluoroazetidin-1-yl)methyl]-4-[4-(4-isopropylpiperazin-1-yl)phenyl]-1H-pyrrolo[3,2-c]pyridine] | 100 | 99
11 | CC(C)N1CCN(c2ccc(-c3nccc4[nH]c(CN5CCCCC5)cc34)cc2)CC1 [Example A17, 4-[4-(4-isopropylpiperazin-1-yl)phenyl]-2-(1-piperidylmethyl)-1H-pyrrolo[3,2-c]pyridine] | 100 | 100
12 | CC(C)N1CCN(c2ccc(-c3nccc4[nH]c(CN5CCC(F)CC5)cc34)cc2)CC1 [Example A24, 2-[(4-fluoro-1-piperidyl)methyl]-4-[4-(4-isopropylpiperazin-yl)phenyl]-1H-pyrrolo[3,2-c] pyridine] |  | 100
13 | CN1CCN(c2ccc(-c3nccc4[nH]c(CN5CCC(F)CC5)cc34)cc2)CC1 [Example A25, 2-[(4-fluoro-1-piperidyl)methyl]-4-[4-(4-methylpiperazin-1-yl)phenyl] - 1H-pyrrolo[3,2-c]pyridine] | 100 | 100
14 | Cc1cc2[nH]c(Cn3cccn3)cc2c(-c2ccc(N3CCN(C(C)C)CC3)cc2)n1 [Example A28, 4-[4-(4-isopropylpiperazin-1-yl)phenyl]-6-methyl-2-(pyrazol-1-ylmethyl)-1H-pyrrolo[3,2-c]pyridine] | 88 | 100
15 | Cc1cc2[nH]c(CN3CCC4(CC3)CC(O)C4)cc2c(-c2ccc(N3CCN(C(C)C)CC3)cc2)n1 [Example A29, 7-[[4-[4-(4-isopropylpiperazin-1-yl)phenyl]-6-methyl-1H-pyrrolo[3,2-c]pyridin-2-yl]methyl]-7-azaspiro[3.5] nonan-2-ol] | 97 | 82
16 | Cc1cc2[nH]c(CN3CCC4(CC3)CC(C)C4)cc2c(-c2ccc(N3CCN(C(C)C)CC3)cc2)n1 [Example A30, 4-[4-(4-isopropylpiperazin-1-yl)phenyl]-6-methyl-2-[(2-methyl-7-azaspiro[3.5]nonan-7-yl)methyl]-1H-pyrrolo[3,2-c]pyridine] | 100 | 100
17 | CC(C)N1CCN(c2ccc(-c3nc(C4CC4)cc4[nH]c(CN5CCOCC5)cc34)cc2)CC1 [Example A33, 4-[[6-cyclopropyl-4-[4-(4-isopropylpiperazin-1-yl)phenyl]-1H-pyrrolo[3,2-c]pyridin-2-yl]methyl] morpholine] |  | 83
18 | CN1CCN(c2ccc(-c3nc(C4CC4)cc4[nH]c(CN5CCOCC5)cc34)cc2)CC1 [Example A34, 4-[[6-cyclopropyl-4-[4-(4-methylpiperazin-1-yl)phenyl]-1H-pyrrolo[3,2-c]pyridin-2-yl]methyl] morpholine] |  | 100
19 | Cc1cc2c(cc(CN3CCOCC3)n2C)c(-c2ccc(N3CCN(C(C)C)CC3)cc2)n1 [Example A35, 4-[[4-[4-(4-isopropylpiperazin-1-yl]phenyl]-1,6-dimethyl-pyrrolo[3,2-c]pyridin-2-yl]methyl] morpholine] | 100 | 100
